Experiment [1] can be described thus: Inhibition of human sGC expressed in HUVEC cells assessed as reduction in GMP level incubated for 2 hrs by ELISA. It counts as cell-based. In general terms: An ELISA detects its analyte on a solid surface through an enzyme-linked reagent.
The subject of experiment [2] is HUVEC. Kind of experiment: Selectivity ratio of IC50 for inhibition of human sGC expressed in HUVEC cells assessed as reduction in GMP level incubated for 2 hrs to human sGC expressed in HUVEC cells assessed as reduction in GMP level incubated for 2 hrs in presence of NPS. It counts as cell-based.
Experiment [3] concerns HUVEC. Kind of experiment: Inhibition of human sGC expressed in HUVEC cells assessed as reduction in GMP level at 2 uM in presence of NPS by ELISA relative to control. It counts as cell-based.
The test system of experiment [4] is HEPC-CB.1. The experiment in a line: Inhibition of angiogenesis in HEPC-CB1 cells assessed as decrease in total length of pseudovessels at 10 uM after 13 hrs by fluorescence inverted microscopic analysis. It counts as functional, cell-based. As to conditions: Homo sapiens.
Experiment [5] can be described thus: Inhibition of bovine lung sGC assessed as reduction in GMP level incubated for 2 hrs in presence of NPS/BAY-412272 by ELISA. It counts as tissue-based, Bos taurus.
The target of experiment [6] is T1, Dopamine beta-hydroxylase (Homo sapiens, UniProt P09172).
T1 sequence (P09172 whole entry): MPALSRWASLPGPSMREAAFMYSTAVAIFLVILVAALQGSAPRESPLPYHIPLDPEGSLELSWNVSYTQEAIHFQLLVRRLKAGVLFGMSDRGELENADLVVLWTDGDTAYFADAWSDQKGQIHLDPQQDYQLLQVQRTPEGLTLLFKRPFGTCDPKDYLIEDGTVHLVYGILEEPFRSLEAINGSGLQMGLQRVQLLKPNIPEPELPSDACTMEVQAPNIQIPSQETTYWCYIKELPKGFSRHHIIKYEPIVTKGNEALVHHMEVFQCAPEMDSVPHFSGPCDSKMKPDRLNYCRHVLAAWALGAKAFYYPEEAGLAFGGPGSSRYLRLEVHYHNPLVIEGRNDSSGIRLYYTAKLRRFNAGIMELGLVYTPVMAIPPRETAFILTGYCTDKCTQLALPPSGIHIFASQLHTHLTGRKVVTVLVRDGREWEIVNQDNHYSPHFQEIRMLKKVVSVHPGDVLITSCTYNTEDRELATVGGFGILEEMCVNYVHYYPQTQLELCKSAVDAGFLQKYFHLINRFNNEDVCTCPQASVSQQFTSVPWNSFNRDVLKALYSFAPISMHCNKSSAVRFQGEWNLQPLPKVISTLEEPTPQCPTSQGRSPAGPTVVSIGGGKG
The experiment in a line: Inhibition of Dopamine beta-hydroxylase (unknown origin) incubated for 10 mins.

The nature of experiment [7]: Inhibition of bovine lung sGC assessed as reduction in GMP level incubated for 2 to 12 hrs in presence of NPS by ELISA. It counts as tissue-based, Bos taurus.
The nature of experiment [8]: Inhibition of bovine lung sGC assessed as reduction in GMP level incubated for 2 hrs in presence of NPS by ELISA. It counts as tissue-based, Bos taurus.
Experiment [9] deals with HEPC-CB.1. Kind of experiment: Inhibition of angiogenesis in HEPC-CB1 cells assessed as decrease in number of closed structures at 10 uM after 13 hrs by fluorescence inverted microscopic analysis. It counts as functional, cell-based. As to conditions: Homo sapiens.
Experiment [10] in a line: Inhibition of human sGC expressed in HUVEC cells assessed as reduction in GMP level incubated for 24 hrs in presence of NPS by ELISA. It counts as cell-based.
The nature of experiment [11]: Inhibition of rat small intestine GST using CDNB as substrate by spectrophotometric method. It counts as tissue-based.
Experiment [12] has as its system HEPC-CB.1. The experiment in a line: Inhibition of angiogenesis in HEPC-CB1 cells assessed as decrease in pseudovessels at 10 uM after 13 hrs by fluorescence inverted microscopic analysis. It counts as functional, cell-based. As to conditions: Homo sapiens.
Experiment [13] relates to HUVEC. Kind of experiment: Selectivity ratio of inhibition of human sGC expressed in HUVEC cells assessed as reduction in GMP level at 2 uM in presence of NPS to inhibition of human sGC expressed in HUVEC cells assessed as reduction in GMP level at 2 uM in presence of NPS/BAY-412272. It counts as cell-based.
Experiment [14] is described as follows: Inhibition of bovine lung sGC assessed as reduction in GMP level incubated for 2 hrs in presence of BAY-412272 by ELISA. It counts as tissue-based, Bos taurus.
Experiment [15] deals with HUVEC. The experiment in a line: Inhibition of human sGC expressed in HUVEC cells assessed as reduction in GMP level at 20 uM in presence of NPS/BAY-412272 by ELISA relative to control. It counts as cell-based.
Experiment [16] can be described thus: Inhibition of human sGC expressed in HUVEC cells assessed as reduction in GMP level incubated for 48 hrs in presence of NPS by ELISA. It counts as cell-based.
Experiment [17] in a line: Inhibition of bovine lung sGC assessed as reduction in GMP level incubated for 48 hrs in presence of NPS by ELISA. It counts as tissue-based, Bos taurus.
Experiment [18] can be described thus: Inhibition of human sGC expressed in HUVEC cells assessed as reduction in GMP level incubated for 48 hrs by ELISA. It counts as cell-based.
Experiment [19] has as its system HUVEC. The experiment in a line: Inhibition of full length human sGC expressed in HUVEC cells assessed as increase in oxidation of heme at 20 uM after 2 hrs by spectroscopic analysis. It counts as cell-based.
Experiment [20] can be described thus: Inhibition of angiogenesis in HEPC-CB1 cells assessed as decrease in number of closed structures at 10 to 20 uM after 13 hrs by fluorescence inverted microscopic analysis. It counts as functional, Homo sapiens, HEPC-CB.1. The settings on record: dose 10-20 µM.
The nature of experiment [21]: Inhibition of angiogenesis in HEPC-CB1 cells assessed as decrease in pseudovessels at 10 to 20 uM after 13 hrs by fluorescence inverted microscopic analysis. It counts as functional, Homo sapiens, HEPC-CB.1. The settings on record: dose 10-20 µM.
Experiment [22] is described as follows: Inhibition of angiogenesis in HEPC-CB1 cells assessed as decrease in total length of pseudovessels at 10 to 20 uM after 13 hrs by fluorescence inverted microscopic analysis. It counts as functional, Homo sapiens, HEPC-CB.1. As to conditions: dose 10-20 µM.
The species named for experiment [23] is Bos taurus. Kind of experiment: Selectivity ratio of IC50 for inhibition of bovine lung sGC assessed as reduction in GMP level in presence of NPS/BAY-412272 to IC50 for inhibition of bovine lung sGC assessed as reduction in GMP level in presence of NPS. It counts as tissue-based.
Experiment [24] is described as follows: Inhibition of human sGC expressed in HUVEC cells assessed as reduction in GMP level incubated for 24 hrs by ELISA. It counts as cell-based.
For experiment [25], the system named is HUVEC. The experiment in a line: Selectivity ratio of inhibition of human sGC expressed in HUVEC cells assessed as reduction in GMP level at 20 uM in presence of NPS to inhibition of human sGC expressed in HUVEC cells assessed as reduction in GMP level at 20 uM in presence of NPS/BAY-412272. It counts as cell-based.
For experiment [26], the system named is HEPC-CB.1. Kind of experiment: Inhibition of angiogenesis in HEPC-CB1 cells assessed as decrease in number of closed structures at 20 uM after 13 hrs by fluorescence inverted microscopic analysis. It counts as functional, cell-based. The settings on record: Homo sapiens.
The test system of experiment [27] is Hepatocyte. Kind of experiment: Cytotoxicity against rat hepatocytes assessed as induction intracellular LDH release incubated for 8 to 24 hrs. It counts as cell-based. For orientation: LDH in the medium is a marker of cell lysis.
Experiment [28] is described as follows: Inhibition of Francisella tularensis FabZ.
Experiment [29] relates to HEPC-CB.1. Kind of experiment: Inhibition of angiogenesis in HEPC-CB1 cells assessed as decrease in pseudovessels at 20 uM after 13 hrs by fluorescence inverted microscopic analysis. It counts as functional, cell-based. The settings on record: Homo sapiens.
Experiment [30] concerns HEPC-CB.1. Kind of experiment: Inhibition of angiogenesis in HEPC-CB1 cells assessed as decrease in total length of pseudovessels at 20 uM after 13 hrs by fluorescence inverted microscopic analysis. As to conditions: Homo sapiens. It counts as functional, cell-based.
Experiment [31] in a line: Inhibition of Yersinia pestis FabZ.

This is an account of results in ChEMBL document CHEMBL4715872, “Soluble Guanylate Cyclase Inhibitors Discovered among Natural Compounds” (J Nat Prod, 2020).

The source made the active and inactive calls. The rule behind the calls is not given here.

The term IC50 denotes the concentration that inhibits the measured activity by half. A word on the inhibition: it is the percentage by which the read-out fell short of the control. Usually Ki stands for the equilibrium dissociation constant of an inhibitor or competing ligand from its target. High values mean a looser hold on the target, low ones a stronger hold on the target.

Take `Cc1cc(O)c2c(=O)c3c(O)cc(O)c4c5c(O)cc(O)c6c(=O)c7c(O)cc(C)c8c1c2c(c34)c(c78)c65` [HYPERICIN]: the IC50 in [1] stood at 400 nM; in [5] it was 350 nM; in [6], 21000 nM; in experiment [7], 200 nM; in experiment [8], 400 nM; in experiment [10], 700 nM. Besides, the 50% inhibitory concentration (IC50) in experiment [14] came to 320 nM. In addition, the results for the Ratio IC50 in experiment [2] and in experiment [13] were 2 and 3, respectively. Moreover, in [3], the inhibition was under 95%. Also, the inhibition result in experiment [4], in experiment [9], in [12] and in experiment [15] was “Active” in each case. The same compound returned a Ki in [11] of 200 nM.
In the case of `O=C1C(O)=C(O)C(=O)c2c(O)ccc(O)c21`, the IC50 stood at 10000 nM in [16], 5000 nM in experiment [17] and 12000 nM in experiment [18]. Further, the inhibition entry in experiment [19] was “inactive”. Further, the “fold change (FC)” value in experiment [20], in experiment [21] and in [22] was 2 throughout.
For `COc1cc(C/C=C/c2ccccc2)c(OC)cc1O` [VIOLASTYRENE], the concentration for half-maximal inhibition (IC50) amounted to 1800 nM in experiment [5]; 800 nM in [7]; 800 nM in experiment [8]; 16000 nM in experiment [10]; 4900 nM in experiment [14]; 16000 nM in experiment [24]. Moreover, in experiment [23], the Ratio IC50 was 2. The inhibition result in experiment [19] was “Active”.
On to `COc1c(O)c2c(=O)cc(OC)c3c4c(OC)cc(O)c5c(=O)c(OC)c6c(c(c1[C@H](C(C)=O)[C@](C)(O)C6)c23)c54`, for which the half-inhibitory concentration (IC50) came to 800 nM in [1], 1500 nM in [7], 1500 nM in experiment [8] and 1500 nM in experiment [10]. Also, the figures for the Ratio IC50 in experiment [2], in experiment [25] and in experiment [13] were 2, 2 and 3, respectively. Further, in experiment [3], the inhibition was under 95%. For the same compound, the inhibition entry in [4], in experiment [9] and in experiment [12] was “Active” in each case.
As for `O=C1C(O)=C(O)C(=O)c2c(O)c(Cl)cc(O)c21`, the IC50 in experiment [16] was found to be 13000 nM; in experiment [17], 3000 nM; in experiment [18], 12000 nM. Also, the inhibition entry in experiment [19] was “inactive”.
For `COc1cc(C)c2c(c1C=O)Oc1c(c(C)c(O)c3c1C(O)OC3=O)OC2=O` (configuration not stated) [STICTIC ACID], the inhibition entry in [26], in experiment [29] and in [30] was “Active” in each case. In addition, the IC50 in [5] is 2500 nM; in experiment [7], 200 nM; in experiment [8] it was 300 nM; in experiment [27], at most 13000 nM; in [10] it was 47000 nM; in [28], 13000 nM. Also, the values for the IC50 in experiment [31], in experiment [14] and in [24] were 13000 nM, 2600 nM and 44000 nM, respectively. For the same compound, the Ratio IC50 in [23] came out at 2. The inhibition entry in experiment [19] was “inactive”.
Take `CC(=O)OC1=C(O)C(=O)c2c(OC(C)=O)ccc(OC(C)=O)c2C1=O`: the IC50 came to 1000 nM in [5]; 200 nM in experiment [7]; 500 nM in [8]; 28000 nM in experiment [10]; 1400 nM in experiment [14]; 29000 nM in experiment [24]. In addition, the Ratio IC50 in experiment [23] was determined as 2. The inhibition result in experiment [19] is “Active”.
